{"source": "patent US9446026B2", "about": "“Ocular formulations for drug-delivery to the posterior segment of the eye” (PanOptica, Inc., priority 2013, dated 2016)", "type_in_all_cases": "in vivo", "key": {"[1]": {"test_system": "pathologic angiogenesis", "experiment": "Systemic administration in murine cornea and rat growth plate models"}, "[2]": {"experiment": "PK with topical ocular Compound-I in sodium phosphate-based Gel Drop", "conditions": "Dutch-belted rabbits", "description": "The Gel Drop of Compound-I was applied to eyes of Dutch-belted rabbits.\nThe Gel Drop formulations (listed in Table 6) differed in several aspects, such as API concentration, sodium phosphate concentration, presence or absence of tonicity (glycerin) or preservative (benzalkoniumchloride/BAK) agents, solubilizing surfactants (polysorbate 80, tyloxapol, and/or poloxamer), and pH."}, "[3]": {"test_system": "pathologic retinal and choroidal neovascularization", "experiment": "Topical ocular delivery in rodent models of retinal and choroidal neovascularization"}}, "data": [{"smiles": "Cl.NC(=O)c1c(OCc2c(F)cc(Br)cc2F)nsc1NC(=O)NCCCCN1CCCC1", "note": "[Compound-I, 3-[(4-bromo-2,6-difluorophenyl)methoxy]-5-[[[[4-(1-pyrrolidinyl)butyl]amino]carbonyl]amino]-4-isothiazolecarboxamide hydrochloride]", "values": [{"measurement": "Inhibition of pathologic angiogenesis", "setting": "[1]", "result": "shown to inhibit"}, {"measurement": "Delivery of Compound-I to posterior segment tissues", "setting": "[2]", "result": "dose-dependent and dose-frequency dependent"}, {"measurement": "Inhibition of pathologic retinal and choroidal neovascularization", "setting": "[3]", "result": "significant inhibition"}]}]}
